Activity calls are given as the source filed them.
Legend:
[1] = molecular target: Metabotropic glutamate receptor 3 (Rattus norvegicus, UniProt P31422); experiment: mGlu3 negative allosteric modulator potency, dose response, HEK/GIRK cells, thallium flux, rat (AID 651839); assay type: functional
[2] = molecular target: ADP-ribosylation factor GTPase-activating protein 1 (Rattus norvegicus, UniProt Q62848); experiment: Fluorescence polarization-based biochemical high throughput dose response screening assay to identify inhibitors of ADP-ribosylation factor GTPase activating protein 1 (ARFGAP1).; assay type: functional
[3] = molecular target: Arf-GAP with SH3 domain, ANK repeat and PH domain-containing protein 1 (Homo sapiens, UniProt Q9ULH1); assay type: functional;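 further: biochemical fluorescence polarization dose–response screen measuring inhibition of ASAP1; ASAP1 GAP domain stimulating GTP hydrolysis by truncated human ARF1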
[4] = HepG2 cell cytotoxicity, dose response, cytotoxicity control, cherry-picks, set 5 (AID 1053118); assay type: functional, cell-based
[5] = molecular target: T1, Sentrin-specific protease 1 (Homo sapiens, UniProt Q9P0U3); experiment: Dose response confirmation of small molecule inhibitors of the catalytic domain of the SUMO protease, SENP1 in a FRET assay.; assay type: functional; conditions: read-out: IC50_Mean
[6] = molecular target: T1, Sentrin-specific protease 1; experiment: potency of human SENP1 inhibitors, dose response, biochemical, kinetic FRET (AID 651697); assay type: functional; conditions: read-out: IC50_Mean
[7] = molecular target: T2, Aryl hydrocarbon receptor (Homo sapiens, UniProt P35869); conditions: Potency;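 further: confirmatory quantitative high-throughput screen measuring activation of the AhR signaling pathway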
T2 sequence (P35869 whole entry): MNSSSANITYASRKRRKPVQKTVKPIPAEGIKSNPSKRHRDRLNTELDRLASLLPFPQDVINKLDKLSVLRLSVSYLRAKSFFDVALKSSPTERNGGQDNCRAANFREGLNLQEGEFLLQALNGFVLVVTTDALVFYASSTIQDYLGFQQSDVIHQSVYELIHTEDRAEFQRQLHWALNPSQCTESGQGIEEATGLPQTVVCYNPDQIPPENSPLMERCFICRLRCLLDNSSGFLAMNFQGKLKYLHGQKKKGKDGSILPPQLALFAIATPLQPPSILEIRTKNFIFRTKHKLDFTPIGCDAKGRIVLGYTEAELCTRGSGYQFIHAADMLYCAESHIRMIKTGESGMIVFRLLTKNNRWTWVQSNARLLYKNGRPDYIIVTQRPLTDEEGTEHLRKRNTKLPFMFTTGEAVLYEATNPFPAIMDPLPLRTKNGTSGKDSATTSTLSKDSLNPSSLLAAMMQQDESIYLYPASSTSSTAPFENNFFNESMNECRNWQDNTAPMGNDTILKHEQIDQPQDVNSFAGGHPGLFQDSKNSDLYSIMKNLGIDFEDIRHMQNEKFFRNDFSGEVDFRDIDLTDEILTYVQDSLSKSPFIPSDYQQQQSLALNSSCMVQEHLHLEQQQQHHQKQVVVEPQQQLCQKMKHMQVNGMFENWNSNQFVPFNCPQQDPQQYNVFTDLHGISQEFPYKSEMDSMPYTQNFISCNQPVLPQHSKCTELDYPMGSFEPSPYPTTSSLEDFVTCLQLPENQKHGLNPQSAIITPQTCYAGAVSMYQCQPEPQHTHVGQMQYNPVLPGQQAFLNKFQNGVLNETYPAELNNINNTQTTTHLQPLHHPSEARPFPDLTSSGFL

[8] = molecular target: 1-phosphatidylinositol 4,5-bisphosphate phosphodiesterase gamma-1 (Homo sapiens, UniProt P19174); experiment: Counterscreen for inhibitors of phospholipase C isozymes (PLC-B3): Fluorescence-based biochemical high throughput dose response assay to identify inhibitors of phospholipase C isozymes (PLC-gamma1).
[9] = molecular target: 1-phosphatidylinositol 4,5-bisphosphate phosphodiesterase beta-3 (Homo sapiens, UniProt Q01970); experiment: Fluorescence-based biochemical high throughput dose response assay to identify inhibitors of phospholipase C isozymes (PLC-B3).
[10] = TRPM1 promoter luciferase reporter signal decrease, dose response, MITF inhibitor project, cell-based, SK-MEL-5, dry powder, set 8 (AID 624430); assay type: functional
[11] = MITF Orthogonal Assay: SK-MEL-5 CTG Assay Measured in Cell-Based System Using Plate Reader - 2084-02_Inhibitor_Dose_DryPowder_Activity_Set7.; assay type: functional
[12] = MITF: Counter assay: A375 proliferation Measured in Cell-Based System Using Plate Reader - 2084-03_Inhibitor_Dose_DryPowder_Activity_Set8.; assay type: functional; conditions: A-375
Vero = experiment: Vero cell toxicity, dose response, cytotoxicity control, plate reader, cherry-pick samples (AID 687020); assay type: functional, cell-based; conditions: Chlorocebus sabaeus
[13] = Luminescence Cell-Based Dose Retest to Confirm Inhibitors of Cancer Stem Cells. [Related pubchem assays (depositor defined):AID2717, AID2721]; assay type: functional; conditions: Homo sapiens
[14] = HEK293T cell cytotoxicity, dose response, cytotoxicity control for HIV Vif inhibitor project, cherry-picks (AID 652208); assay type: functional, cell-based

T1 sequence (Q9P0U3 whole entry, the tested form may be a part): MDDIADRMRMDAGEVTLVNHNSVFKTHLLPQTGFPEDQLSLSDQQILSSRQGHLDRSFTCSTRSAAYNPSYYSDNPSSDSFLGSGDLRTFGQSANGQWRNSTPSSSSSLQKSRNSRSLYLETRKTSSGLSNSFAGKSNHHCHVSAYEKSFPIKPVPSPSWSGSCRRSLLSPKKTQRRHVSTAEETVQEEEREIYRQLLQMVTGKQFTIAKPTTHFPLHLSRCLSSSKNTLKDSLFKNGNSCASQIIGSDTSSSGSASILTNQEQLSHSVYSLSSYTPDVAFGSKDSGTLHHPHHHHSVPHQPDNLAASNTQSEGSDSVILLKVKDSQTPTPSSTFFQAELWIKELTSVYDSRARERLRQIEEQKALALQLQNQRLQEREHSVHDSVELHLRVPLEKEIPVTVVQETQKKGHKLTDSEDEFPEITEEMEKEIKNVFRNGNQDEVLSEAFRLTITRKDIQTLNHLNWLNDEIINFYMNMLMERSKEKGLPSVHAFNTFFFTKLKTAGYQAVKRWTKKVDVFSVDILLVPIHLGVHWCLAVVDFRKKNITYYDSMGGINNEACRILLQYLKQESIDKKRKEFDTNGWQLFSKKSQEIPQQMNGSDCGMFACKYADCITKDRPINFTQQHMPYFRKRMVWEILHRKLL
1-phosphatidylinositol 4,5-bisphosphate phosphodiesterase gamma-1, sequence (P19174 whole entry): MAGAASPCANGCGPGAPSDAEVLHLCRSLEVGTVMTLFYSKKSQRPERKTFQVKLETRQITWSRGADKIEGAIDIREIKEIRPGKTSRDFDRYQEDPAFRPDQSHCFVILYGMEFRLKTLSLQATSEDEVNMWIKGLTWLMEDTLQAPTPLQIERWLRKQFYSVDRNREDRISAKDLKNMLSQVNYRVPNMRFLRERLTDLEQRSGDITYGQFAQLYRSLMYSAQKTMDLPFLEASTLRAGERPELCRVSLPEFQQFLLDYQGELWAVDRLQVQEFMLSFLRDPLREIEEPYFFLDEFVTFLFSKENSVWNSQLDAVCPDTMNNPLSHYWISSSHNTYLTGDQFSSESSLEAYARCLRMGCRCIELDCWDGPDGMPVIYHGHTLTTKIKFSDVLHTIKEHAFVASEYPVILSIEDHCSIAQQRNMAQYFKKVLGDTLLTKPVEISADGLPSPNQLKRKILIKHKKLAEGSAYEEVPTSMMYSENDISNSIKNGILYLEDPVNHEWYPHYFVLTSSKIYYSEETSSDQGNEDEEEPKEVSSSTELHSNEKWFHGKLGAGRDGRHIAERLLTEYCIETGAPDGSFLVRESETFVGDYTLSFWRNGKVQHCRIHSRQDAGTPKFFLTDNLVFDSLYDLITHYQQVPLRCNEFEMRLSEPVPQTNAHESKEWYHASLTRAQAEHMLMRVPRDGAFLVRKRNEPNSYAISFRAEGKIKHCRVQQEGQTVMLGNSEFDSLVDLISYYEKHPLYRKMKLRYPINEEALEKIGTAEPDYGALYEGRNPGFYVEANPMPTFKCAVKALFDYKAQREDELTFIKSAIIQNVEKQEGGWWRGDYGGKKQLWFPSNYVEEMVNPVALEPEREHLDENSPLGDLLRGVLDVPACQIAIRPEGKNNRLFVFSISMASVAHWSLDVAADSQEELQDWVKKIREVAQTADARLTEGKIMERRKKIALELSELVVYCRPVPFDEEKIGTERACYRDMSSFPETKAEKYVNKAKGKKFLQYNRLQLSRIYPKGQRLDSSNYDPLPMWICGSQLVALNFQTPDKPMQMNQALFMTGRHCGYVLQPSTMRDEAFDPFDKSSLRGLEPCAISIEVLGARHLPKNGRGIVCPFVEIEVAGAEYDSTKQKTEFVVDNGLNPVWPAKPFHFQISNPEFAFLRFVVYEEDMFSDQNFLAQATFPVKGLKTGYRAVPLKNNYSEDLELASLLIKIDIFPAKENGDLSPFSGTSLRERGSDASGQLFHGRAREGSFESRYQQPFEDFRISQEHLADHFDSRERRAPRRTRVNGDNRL
Arf-GAP with SH3 domain, ANK repeat and PH domain-containing protein 1, sequence (Q9ULH1 whole entry, the tested form may be a part): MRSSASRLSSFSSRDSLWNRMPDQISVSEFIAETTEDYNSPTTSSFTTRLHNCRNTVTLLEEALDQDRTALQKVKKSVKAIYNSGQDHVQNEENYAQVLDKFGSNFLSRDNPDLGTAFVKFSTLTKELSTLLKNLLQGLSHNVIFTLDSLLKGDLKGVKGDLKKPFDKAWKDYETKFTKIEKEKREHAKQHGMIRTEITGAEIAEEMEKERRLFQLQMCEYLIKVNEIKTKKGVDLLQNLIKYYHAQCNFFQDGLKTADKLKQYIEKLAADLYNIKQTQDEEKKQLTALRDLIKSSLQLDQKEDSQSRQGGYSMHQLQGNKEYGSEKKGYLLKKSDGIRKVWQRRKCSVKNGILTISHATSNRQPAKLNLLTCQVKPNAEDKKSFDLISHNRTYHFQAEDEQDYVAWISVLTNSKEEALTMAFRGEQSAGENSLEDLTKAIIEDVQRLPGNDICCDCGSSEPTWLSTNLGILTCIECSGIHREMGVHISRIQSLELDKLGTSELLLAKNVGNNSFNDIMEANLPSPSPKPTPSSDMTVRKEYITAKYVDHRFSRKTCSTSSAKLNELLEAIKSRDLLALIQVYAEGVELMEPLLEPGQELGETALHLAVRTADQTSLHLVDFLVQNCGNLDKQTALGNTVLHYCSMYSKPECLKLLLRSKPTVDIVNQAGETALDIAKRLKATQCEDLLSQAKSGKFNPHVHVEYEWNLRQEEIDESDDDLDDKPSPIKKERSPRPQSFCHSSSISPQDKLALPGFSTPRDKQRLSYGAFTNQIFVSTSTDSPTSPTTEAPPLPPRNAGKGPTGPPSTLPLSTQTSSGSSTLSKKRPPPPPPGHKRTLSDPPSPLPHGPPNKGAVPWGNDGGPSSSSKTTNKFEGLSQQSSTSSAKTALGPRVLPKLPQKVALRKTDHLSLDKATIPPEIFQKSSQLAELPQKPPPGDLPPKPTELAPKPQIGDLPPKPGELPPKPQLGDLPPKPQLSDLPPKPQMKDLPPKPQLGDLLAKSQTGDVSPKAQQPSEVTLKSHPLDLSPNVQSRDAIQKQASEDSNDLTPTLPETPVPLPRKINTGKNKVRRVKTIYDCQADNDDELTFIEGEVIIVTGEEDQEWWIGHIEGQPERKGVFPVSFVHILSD
1-phosphatidylinositol 4,5-bisphosphate phosphodiesterase beta-3, sequence (Q01970 whole entry): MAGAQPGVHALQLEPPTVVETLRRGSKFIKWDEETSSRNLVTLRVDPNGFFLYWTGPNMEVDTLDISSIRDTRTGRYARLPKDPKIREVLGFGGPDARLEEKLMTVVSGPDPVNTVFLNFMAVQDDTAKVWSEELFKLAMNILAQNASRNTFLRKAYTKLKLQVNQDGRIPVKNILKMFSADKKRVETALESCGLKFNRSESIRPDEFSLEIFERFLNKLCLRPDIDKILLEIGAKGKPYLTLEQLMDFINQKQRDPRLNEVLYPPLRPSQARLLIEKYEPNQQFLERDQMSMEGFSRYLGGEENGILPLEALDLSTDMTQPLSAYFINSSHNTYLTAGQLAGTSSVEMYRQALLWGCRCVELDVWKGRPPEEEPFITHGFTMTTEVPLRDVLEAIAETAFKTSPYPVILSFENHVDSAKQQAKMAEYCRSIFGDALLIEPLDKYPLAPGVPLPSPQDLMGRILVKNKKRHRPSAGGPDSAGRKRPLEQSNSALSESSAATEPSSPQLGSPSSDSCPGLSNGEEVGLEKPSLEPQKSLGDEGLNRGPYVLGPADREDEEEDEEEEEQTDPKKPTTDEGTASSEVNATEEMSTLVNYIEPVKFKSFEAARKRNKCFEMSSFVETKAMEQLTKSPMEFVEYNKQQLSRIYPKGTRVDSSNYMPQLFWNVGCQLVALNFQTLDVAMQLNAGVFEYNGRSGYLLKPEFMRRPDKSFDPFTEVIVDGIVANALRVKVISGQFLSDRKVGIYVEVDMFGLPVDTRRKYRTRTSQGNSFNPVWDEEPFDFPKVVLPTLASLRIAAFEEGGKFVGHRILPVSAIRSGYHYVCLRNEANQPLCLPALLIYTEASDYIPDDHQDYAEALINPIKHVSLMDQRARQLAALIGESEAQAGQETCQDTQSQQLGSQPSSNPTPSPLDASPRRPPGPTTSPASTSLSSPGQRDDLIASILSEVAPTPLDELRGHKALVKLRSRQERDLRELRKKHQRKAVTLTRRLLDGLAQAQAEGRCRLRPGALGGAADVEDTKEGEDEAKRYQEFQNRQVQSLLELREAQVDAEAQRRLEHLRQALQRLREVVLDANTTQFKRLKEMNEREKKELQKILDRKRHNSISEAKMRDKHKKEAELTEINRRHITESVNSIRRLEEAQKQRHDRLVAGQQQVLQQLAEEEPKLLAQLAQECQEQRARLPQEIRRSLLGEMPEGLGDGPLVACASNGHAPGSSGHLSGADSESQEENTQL
ADP-ribosylation factor GTPase-activating protein 1, sequence (Q62848 whole entry, the tested form may be a part): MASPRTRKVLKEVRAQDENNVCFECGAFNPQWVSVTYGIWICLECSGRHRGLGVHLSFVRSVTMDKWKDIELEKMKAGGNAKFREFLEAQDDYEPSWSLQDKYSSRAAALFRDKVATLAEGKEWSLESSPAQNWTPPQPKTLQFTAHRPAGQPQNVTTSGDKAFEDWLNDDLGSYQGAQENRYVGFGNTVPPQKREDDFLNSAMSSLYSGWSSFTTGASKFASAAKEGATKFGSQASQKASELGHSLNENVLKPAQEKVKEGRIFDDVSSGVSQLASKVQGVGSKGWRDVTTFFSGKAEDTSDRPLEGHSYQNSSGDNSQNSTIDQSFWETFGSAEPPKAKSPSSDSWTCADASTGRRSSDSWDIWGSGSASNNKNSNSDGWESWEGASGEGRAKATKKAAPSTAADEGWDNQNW

## COc1ccc(C#Cc2ccc(C(=O)N3CCC[C@@H](O)C3)cc2)c(F)c1
[1]
  IC50: 4.29 µM

## COc1ccc(/C=N\NC(=O)c2ccc([N+](=O)[O-])cc2)cc1COc1c(F)c(F)cc(F)c1F
[2]
  IC50: 12.4 µM (inactive)
[3]
  IC50: 15.7 µM (inactive)

## COCC(=O)Nc1ccc2c(c1)C(=O)N(C)[C@H]1CC[C@@H](CC(=O)NCc3ccccc3Cl)O[C@@H]1CO2
[4]
  AC50: > 52 µM (inactive)

## Nc1ccc2c(c1)C(=NO)c1cc([N+](=O)[O-])ccc1-2
[5]
  IC50: 3.12 µM (active)
[6]
  IC50: 18.1 µM (active)

## CNc1cnn(-c2cccc(C(F)(F)F)c2)c(=O)c1Cl [NORFLURAZONE]
[7]
  AC50: 31.6 µM (inconclusive)

## CN(C(=O)c1ccccc1)C1c2c(ccc3ccccc23)OCC1CO (stereo not given)
[8]
  IC50: > 122 µM (inactive)
[9]
  IC50: > 122 µM (inactive)

## CCN1CCN(C2=C(Nc3cccc(Br)c3)C(=O)c3ccccc3C2=O)CC1
[10]
  AC50: 3.45 µM (active)
[11]
  AC50: 8.08 µM (active)
[12]
  AC50: 26.2 µM (active)

## Cc1cccc(OC(C)C(=O)Nc2nc(-c3ccncc3)cs2)c1 (stereo not given)
Vero
  AC50: 35.8 µM (active)

## Cc1cc(C)cc(NC(=O)CCc2nc(O)c3c4c(sc3n2)CCCC4)c1
[13]
  AC50: 0.91 µM (active)
[14]
  AC50: 37.5 µM (active)

From ChEMBL document CHEMBL1201862, “PubChem BioAssay data set” (2004)
